Columns and labels:
Assay in all cases: relative viability (nuclei count vs DMSO), 5 days (fraction); higher = more cells survive
Erlotinib + Vorinostat = compound: C#Cc1cccc(Nc2ncnc3cc(OCCOC)c(OCCOC)cc23)c1 [Erlotinib] + O=C(CCCCCCC(=O)Nc1ccccc1)NO [Vorinostat] (partner 1 µM)
Method in brief: (§1)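 Lung cancer cell lines in 1536-well plates were dosed by pin tool the day after seeding, either with one drug alone or with a fixed anchor-drug dose plus five library-drug doses (not always all listed) in √10 steps. After 5 days, cells were fixed and their nuclei stained in one step (final 0.05% Triton X-100, 1% formaldehyde, 1 ug/ml Hoechst), then counted on 4× images. Relative viability is the nuclei count in treated wells divided by that in vehicle wells. Values are medians of duplicate plates.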

AT9283 + Phenformin = compound: O=C(Nc1c[nH]nc1-c1nc2ccc(CN3CCOCC3)cc2[nH]1)NC1CC1 [AT9283] + N=C(N)NC(=N)NCCc1ccccc1 [Phenformin] (partner 250 µM)
Method in brief: as §1

Erlotinib + Phenformin = compound: C#Cc1cccc(Nc2ncnc3cc(OCCOC)c(OCCOC)cc23)c1 [Erlotinib] + N=C(N)NC(=N)NCCc1ccccc1 [Phenformin] (partner 250 µM)
Method in brief: as §1

AT9283 + Navitoclax = compound: O=C(Nc1c[nH]nc1-c1nc2ccc(CN3CCOCC3)cc2[nH]1)NC1CC1 [AT9283] + CC1(C)CCC(c2ccc(Cl)cc2)=C(CN2CCN(c3ccc(C(=O)NS(=O)(=O)c4ccc(N[C@H](CCN5CCOCC5)CSc5ccccc5)c(S(=O)(=O)C(F)(F)F)c4)cc3)CC2)C1 [Navitoclax] (partner 0.5 µM)
Method in brief: as §1

AT9283 + Crizotinib = compound: O=C(Nc1c[nH]nc1-c1nc2ccc(CN3CCOCC3)cc2[nH]1)NC1CC1 [AT9283] + C[C@@H](Oc1cc(-c2cnn(C3CCNCC3)c2)cnc1N)c1c(Cl)ccc(F)c1Cl [Crizotinib] (partner 1 µM)
Method in brief: as §1

Cell Line | relative viability (Erlotinib + Vorinostat; first compound 0.02 µM) | relative viability (Erlotinib + Vorinostat; first compound 0.2 µM) | relative viability (Erlotinib + Vorinostat; first compound 0.6325 µM) | relative viability (Erlotinib + Vorinostat; first compound 2 µM) | relative viability (AT9283 + Phenformin; first compound 0.003 µM) | relative viability (AT9283 + Phenformin; first compound 0.03 µM) | relative viability (AT9283 + Phenformin; first compound 0.09487 µM) | relative viability (AT9283 + Phenformin; first compound 0.3 µM) | relative viability (Erlotinib + Phenformin; first compound 0.02 µM) | relative viability (Erlotinib + Phenformin; first compound 0.2 µM) | relative viability (Erlotinib + Phenformin; first compound 0.6325 µM) | relative viability (Erlotinib + Phenformin; first compound 2 µM) | relative viability (AT9283 + Navitoclax; first compound 0.003 µM) | relative viability (AT9283 + Navitoclax; first compound 0.03 µM) | relative viability (AT9283 + Navitoclax; first compound 0.09487 µM) | relative viability (AT9283 + Navitoclax; first compound 0.3 µM) | relative viability (AT9283 + Crizotinib; first compound 0.003 µM) | relative viability (AT9283 + Crizotinib; first compound 0.03 µM) | relative viability (AT9283 + Crizotinib; first compound 0.09487 µM) | relative viability (AT9283 + Crizotinib; first compound 0.3 µM)
SK-MES-1 | 1.14 | 0.619 | 0.672 | 0.491 | 0.748 | 0.595 | 0.318 | 0.243 | 0.705 | 0.599 | 0.385 | 0.368 | 1.24 | 1.11 | 0.336 | 0.147 | 1.02 | 0.883 | 0.84 | 0.256
H3255 | 0.705 | 0.817 | 0.628 | 0.206 | 0.403 | 0.328 | 0.273 | 0.255 | 0.374 | 0.226 | 0.246 | 0.243 | 0.513 | 0.499 | 0.216 | 0.105 | 0.909 | 0.77 | 0.471 | 0.146
NCI-H1703 |  |  |  |  |  |  |  |  |  |  |  |  | 1.36 | 0.19 | 0.216 | 0.176 | 0.694 | 0.401 | 0.211 | 0.225
NCI-H1792 |  |  |  |  |  | 0.255 | 0.333 | 0.148 | 0.24 | 0.219 | 0.207 | 0.186 | 0.637 | 0.569 | 0.248 | 0.187 | 0.933 | 0.993 | 0.984 | 0.811
NCI-H650 | 0.487 | 0.496 | 0.59 | 0.449 | 0.366 | 0.436 | 0.223 | 0.165 | 0.424 | 0.462 | 0.449 | 0.479 |  |  |  |  | 0.6 | 0.368 | 0.222 | 0.22
IA-LM | 0.905 | 0.72 |  | 0.744 |  |  |  |  |  |  |  |  | 0.952 | 0.372 | 0.112 | 0.0779 | 0.846 | 0.261 | 0.0839 | 0.132
NCI-H1648 | 0.528 | 0.304 | 0.501 | 0.278 |  |  |  |  |  |  |  |  |  |  |  |  |  |  |  | 
NCI-H1563 |  |  |  |  | 0.638 | 0.663 | 0.605 | 0.556 | 0.63 | 0.602 | 0.708 | 0.6 |  |  |  |  | 0.955 | 0.713 | 0.686 | 0.658
NCI-H522 | 0.949 | 0.832 | 0.869 | 0.762 | 0.555 | 0.481 | 0.44 | 0.377 | 0.602 | 0.615 | 0.691 | 0.612 |  |  |  |  |  |  |  | 
NCI-H1395 | 0.776 | 0.674 | 0.808 | 0.652 | 0.391 | 0.43 | 0.316 | 0.321 | 0.503 | 0.462 | 0.483 | 0.463 | 1.21 | 0.716 | 0.393 | 0.421 |  |  |  | 
NCI-H358 | 0.693 | 0.292 | 0.419 | 0.221 | 0.309 | 0.1 | 0.0619 | 0.0785 | 0.349 | 0.277 | 0.234 | 0.178 |  |  |  |  | 0.391 | 0.175 | 0.156 | 0.145
SW 900 | 0.683 | 0.439 | 0.523 | 0.448 | 0.63 | 0.595 | 0.486 | 0.256 | 0.55 | 0.565 | 0.679 | 0.487 |  |  |  |  |  |  |  | 
ABC-1 |  | 1.13 | 1.34 | 0.985 | 0.231 | 0.159 | 0.233 | 0.192 | 0.248 | 0.248 | 0.217 | 0.233 |  |  |  |  | 1.03 | 0.238 | 0.182 | 0.193
A549 |  |  |  |  | 0.284 | 0.0777 | 0.0526 | 0.0427 | 0.225 | 0.196 | 0.178 | 0.199 | 1.14 | 0.0945 | 0.0413 | 0.0451 | 0.717 | 0.0751 | 0.0711 | 0.0659
Calu-6 |  |  |  |  |  |  |  |  |  |  |  |  | 0.794 | 0.113 | 0.134 | 0.102 | 0.742 | 0.253 | 0.238 | 0.291
NCI-H1793 | 0.841 | 0.36 | 0.551 | 0.441 | 0.301 | 0.352 | 0.138 | 0.219 | 0.344 | 0.335 | 0.287 | 0.243 | 0.533 | 0.429 | 0.231 | 0.164 |  |  |  | 
EBC-1 |  |  |  |  |  |  |  |  |  |  |  |  | 0.461 | 0.203 | 0.145 | 0.17 | 0.212 | 0.178 | 0.172 | 0.181
NCI-H1623 |  |  |  |  | 0.597 | 0.578 | 0.55 | 0.336 | 0.559 | 0.528 | 0.227 | 0.264 |  |  |  |  |  |  |  | 
LCLC-103H | 0.837 | 0.732 | 0.796 | 0.685 | 0.295 | 0.356 | 0.331 | 0.205 | 0.335 | 0.347 | 0.356 | 0.289 |  |  |  |  | 1.04 | 0.963 | 0.932 | 0.5
NCI-H661 | 0.834 | 0.758 | 0.775 | 0.646 | 0.276 | 0.269 | 0.252 | 0.236 | 0.301 | 0.264 | 0.269 | 0.318 |  |  |  |  | 0.986 | 0.571 | 0.409 | 0.452
NCI-H1299 |  |  |  |  |  |  |  |  |  |  |  |  | 1.09 | 0.927 | 0.363 | 0.304 | 1.01 | 0.475 | 0.339 | 0.346
NCI-H2342 | 0.615 | 0.851 | 0.801 | 0.789 | 0.592 | 0.423 | 0.534 | 0.341 | 0.532 | 0.671 | 0.572 | 0.433 |  |  |  |  |  |  |  | 

— the supplement of paper PMC10307832
